Assay results taken from patent publication US8338414B2, “Immunosuppressive agent and anti-tumor agent comprising heterocyclic compound as active ingredient” (Zenyaku Kogyo KabushikiKaisha, priority 2005, dated 2012).
Read-outs that look alike come from different tables or passages of the source.

Columns and labels:
[1] = system: fulminant hepatitis; test: Fulminant hepatitis model (galactosamine and LPS); assay type: in vivo, mouse; settings: BALB/c mice, galactosamine 800 mg/kg and LPS 110 μg/kg i.p.
Description: BALB/c male mice (7 weeks old, purchased from Charles River Laboratories Japan Inc.) were used in the experiment. After having orally administered the test substances suspended in 5% HPC, galactosamine (800 mg/kg) and LPS (110 μg/kg) were intraperitoneally administered. Then, survival rates at 72 hours after administration were obtained.

[2] = system: mouse spleen cells; test: Proliferation inhibition assay for mouse spleen cells; assay type: cell-based; settings: 72 h, 3 days, Alamar Blue
Description: Spleen cells (2×10^6 cells/mL) prepared from C57BL/6N female mice (8 weeks old, purchased from Charles River Laboratories Japan Inc.) were suspended in RPMI 1640 medium (containing 10% fetal bovine serum, 10 mM HEPES, 1 mM pyruvic acid, 4.5 g/L glucose, 100 units/mL penicillin, and 0.1 mg/mL streptomycin), and seeded in wells of a 96 well plate at 0.225 mL per well. Serial dilutions of test substances were added to respective wells, and then concanavalin A (Con A, 3 μg/mL), lipopolysaccharide (LPS, 100 μg/mL), or an anti-mouse IgM antibody (100 μg/mL) were added. Thereafter, they were incubated under conditions of carbon dioxide 5% at a temperature 37° C. for 3 days. Next, Alamar Blue solution was added at 50 μL per 150 μL, and after having cultured for one day, the fluorescence intensity at 590 nm using an excitation wavelength of 530 nm was determined by Cytoflour 4000 (Applied Biosystems).

[3] = system: human peripheral blood mononuclear cells; test: Proliferation inhibition assay for human peripheral blood mononuclear cells; assay type: cell-based; settings: PBMC, anti-CD3 and anti-CD28 antibody, 3 days, Alamar Blue
Description: 4 mL of blood collected from healthy subjects was placed on 3 mL of MonoPoly Resolving Medium, and after centrifugation, the mononuclear cell (PBMC) fraction was collected. After washing with saline, PBMC (1×10^5 cells/mL) was suspended in RPMI 1640 medium (containing 10% fetal bovine serum, 10 mM HEPES, 1 mM pyruvic acid, and 4.5 g/L glucose). Next, after having added an anti-CD28 antibody (1 μg/mL) to the suspension, they were seeded on an anti-human CD3 T cell activation plate (BD Bioscience) at a capacity of 0.135 mL per well. Then, serial dilutions of test substances were added to respective wells, and incubated under conditions of carbon dioxide 5% at a temperature 37° C. After 3 days, Alamar Blue solution was added at 50 μL per well, and after incubation for one day, a fluorescence intensity at 590 nm using an excitation wavelength of 530 nm was determined by Cytoflour 4000 (Applied Biosystems).

[4] = system: Rabbit synoviocytes HIG-82; test: Inhibition assay for proliferation of rabbit synoviocyte; assay type: cell-based; settings: HIG-82, 3 days, Alamar Blue
Description: Rabbit synoviocytes HIG-82 suspended in HAM medium (containing 10% fetal bovine serum, 25 mM HEPES, and 0.1 mg/mL kanamycin) (with 4×10^4 cells/mL) were seeded in wells of a 96 well plate at 0.135 mL per well. Then, 15 μL of each of serial dilutions of test substances was added to a respective well, and incubated under conditions of carbon dioxide 5% at a temperature 37° C. Alamar Blue solution was added at 50 μL per well on day 0 and day 3, and incubated for one day, and thereafter fluorescence intensity at 590 nm using an excitation wavelength of 530 nm was determined by Cytoflour 4000 (Applied Biosystems).

[5] = system: allogeneic mixed lymphocyte reaction; test: Allogeneic mixed lymphocyte reaction; assay type: cell-based, mouse; settings: C57BL/6N spleen stimulator cells, BALB/c lymph node responder cells, 86 hours, BrdU
Description: Spleen cells prepared from C57BL/6N female mice (8-10 weeks old, purchased from Charles River Laboratories Japan Inc.) and peripheral lymph node mononuclear cells prepared from BALB/c female mice (8-10 weeks old, purchased from Charles River Laboratories Japan Inc.) were used as stimulator cells and responder cells, respectively. The respective cells were suspended in RPMI 1640 medium (containing 10% fetal bovine serum, 100 units/mL penicillin, and 0.1 mg/mL streptomycin) (with 2×10^6 cells/mL).

[6] = system: Daudi cells; test: Proliferation inhibitory activity on hematologic neoplasm cells, Daudi; assay type: cell-based; settings: 3 days, Alamar Blue
Description: (§1) Daudi cells (5×10^5 cells/mL), Jurkat cells (5×10^5 cells/mL), THP-1 cells (5×10^5 cells/mL), U 937 cells (5×10^5 cells/mL), and HL 60 cells (5×10^5 cells/mL) suspended in RPMI 1640 medium (containing 10% fetal bovine serum, 10 mM HEPES, 1 mM pyruvic acid, 4.5 g/L glucose, 100 units/mL penicillin, and 0.1 mg/mL streptomycin) were seeded in 96 well plates at a capacity of 0.135 mL per well. Serial dilutions of test substances were added to respective wells at 15 μL/well, and incubated under conditions of carbon dioxide 5% at 37° C. for 3 days. Thereafter, Alamar Blue solution was added at 50 μL, and after incubation for one day, the fluorescence intensity at 590 nm using an excitation wavelength of 530 nm was determined by Cytoflour 4000 (Applied Biosystems).

[7] = system: Jurkat cells; test: Proliferation inhibitory activity on hematologic neoplasm cells, Jurkat; assay type: cell-based; settings: 3 days, Alamar Blue
Description: as §1

[8] = system: HL 60 cells; test: Proliferation inhibitory activity on hematologic neoplasm cells, HL60; assay type: cell-based; settings: 3 days, Alamar Blue
Description: as §1

[9] = system: THP-1 cells; test: Proliferation inhibitory activity on hematologic neoplasm cells, THP-1; assay type: cell-based; settings: 3 days, Alamar Blue
Description: as §1

[10] = system: U 937 cells; test: Proliferation inhibitory activity on hematologic neoplasm cells, U937; assay type: cell-based; settings: 3 days, Alamar Blue
Description: as §1

[11] = LPS 100 μg/mL, read-out: Inhibition of LPS response
[12] = anti-mouse IgM antibody 100 μg/mL, read-out: Inhibition of Anti-IgM antibody response
[13] = concanavalin A 3 μg/mL, read-out: Inhibition of Con A response

| Compound | Survival Rate after 72 Hours ([1]; 100 mg/kg oral) | IC50 [2, 11] | IC50 [2, 13] | IC50 ([3]; Homo sapiens, 72 h) | IC50 ([4]; Oryctolagus cuniculus, 72 h) | IC50 ([5]; Mus musculus, Lymphocyte) | IC50 ([6]; Homo sapiens, Daudi, 72 h) | IC50 ([7]; Homo sapiens, Jurkat, 72 h) | IC50 ([8]; Homo sapiens, HL-60, 72 h) | IC50 ([9]; Homo sapiens, THP-1, 72 h) | IC50 ([10]; Homo sapiens, U-937, 72 h) | melting point | also measured |
| --- | --- | --- | --- | --- | --- | --- | --- | --- | --- | --- | --- | --- | --- |
| Oc1cccc2c1nc(C(F)F)n2-c1nc(N2CCOCC2)cc(N2CCOCC2)n1 [Compound 18, 2-(2-Difluoromethyl-4-hydroxybenzimidazol-1-yl)-4,6-dimorpholinopyrimidine] | 80% | – | – | – | – | – | – | – | – | – | – | – | Survival Rate after 72 Hours ([1]; 50 mg/kg oral): 50% |
| Cc1cccc2c1nc(C(F)F)n2-c1nc(N2CCOCC2)nc(N2CCOCC2)n1 [Compound 10, 2-(2-Difluoromethyl-4-methylbenzimidazol-1-yl)-4,6-dimorpholino-1,3,5-triazine] | – | 10000 to 100000 nM | 100 to 10000 nM | 825 nM | 6510 nM | 344 nM | 160 nM | > 10000 nM | 1790 nM | 794 nM | > 10000 nM | 259 to 260 °C | IC50 [2, 12]: 100 to 10000 nM |
| Oc1ccc2nc(C(F)F)n(-c3nc(N4CCOCC4)nc(N4CCOCC4)n3)c2c1 [Compound 16, 2-(2-Difluoromethyl-6-hydroxybenzimidazol-1-yl)-4,6-dimorpholino-1,3,5-triazine] | – | – | – | 12.3 nM | 163 nM | 460 nM | 10.3 nM | 357 nM | 67.2 nM | 112 nM | 604 nM | > 250 °C | – |
| Cc1nc2ccccc2n1-c1nc(N2CCOCC2)nc(N2CCOCC2)n1 [Compound 1, 2-(2-Methylbenzimidazol-1-yl)-4,6-dimorpholino-1,3,5-triazine] | – | 100 to 10000 nM | 100 to 10000 nM | 1780 nM | 4850 nM | 670 nM | 827 nM | 5020 nM | > 10000 nM | 535 nM | > 10000 nM | 218 to 220 °C (dec.) | – |
| Oc1cccc2c1nc(C(F)F)n2-c1nc(N2CCOCC2)nc(N2CCOCC2)n1 [Compound 15, 2-(2-Difluoromethyl-4-hydroxybenzimidazol-1-yl)-4,6-dimorpholino-1,3,5-triazine] | 0% | – | – | 2.91 nM | 85.6 nM | 42.1 nM | 4.92 nM | 116 nM | 35.8 nM | 45.4 nM | 217 nM | – | Survival Rate after 72 Hours ([1]; 50 mg/kg oral): 17% |
| OCc1nc2ccccc2n1-c1nc(N2CCOCC2)nc(N2CCOCC2)n1 [Compound 3, 4,6-Dimorpholino-2-(2-hydroxymethylbenzimidazol-1-yl)-1,3,5-triazine] | – | 100 to 10000 nM | 100 to 10000 nM | 1130 nM | 1780 nM | 600 nM | 379 nM | 3270 nM | 3160 nM | 135 nM | 4140 nM | 208 to 210 °C (dec.) | – |
| Nc1nc2ccccc2n1-c1nc(N2CCOCC2)nc(N2CCOCC2)n1 [Compound 6, 2-(2-Aminobenzimidazol-1-yl)-4,6-dimorpholino-1,3,5-triazine] | 40% | 100 to 10000 nM | 100 to 10000 nM | 2080 nM | 6350 nM | 3630 nM | 803 nM | 6620 nM | > 10000 nM | 5540 nM | > 10000 nM | – | IC50 [2, 12]: 100 to 10000 nM |
| Nc1cccc2c1nc(C(F)F)n2-c1nc(N2CCOCC2)nc(N2CCOCC2)n1 [Compound 14, 2-(4-Amino-2-difluoromethylbenzimidazol-1-yl)-4,6-dimorpholino-1,3,5-triazine] | – | – | – | 92.3 nM | 484 nM | 227 nM | 65.5 nM | 1340 nM | 396 nM | 286 nM | 1110 nM | 214 to 216 °C (dec.) | – |
| 2-(2-Difluoromethyl-4-hydroxybenzimidazol-1-yl)-4-morpholino-6-(2,6-dimethylmorpholino)pyrimidine [Compound 11] | – | – | – | – | – | – | – | – | – | – | – | – | IC50 [3]: > 10000 nM; IC50 [4]: > 10000 nM; IC50 [5]: 1430 nM; IC50 [6]: 2750 nM; IC50 [7]: > 10000 nM; IC50 [8]: > 10000 nM; IC50 [9]: > 10000 nM; IC50 [10]: > 10000 nM |
